Earlier results as cited in patent US20050244821A1, “Method of identification and quantification of biological molecules and apparatus therefore” (priority 2000, published 2005).

Biological target: D2.3 antibody
Details: hapten and antibody free in solution; competitive ELISA, further by a fluorescence assay; read-out: affinity constant

- Kd: 4 nM
Substance: p-nitrobenzyl phosphonate N-glycylglutatarate [hapten 23.7]
